Publication PMC6938011, “Antiplasmodial profile of selected compounds from Malaria Box: in vitro evaluation, speed of action and drug combination studies” (Malaria Journal, 2019)
pIC50: −log10 of the molar value. Entries after “also recorded” stand apart in the source; their conditions may differ. Like-named read-outs stand apart in the source and are kept apart here.

Columns and labels:
P. falciparum = test: Combination assays, isobologram analysis (FIC50 pairs); format: cell-based, Plasmodium falciparum; settings: for Isobologram data, Additive: fraction of FIC50 pairs / Isobologram data, Additive: number of FIC50 pairs / Isobologram data, Antagonistic: fraction of FIC50 pairs / Isobologram data, Antagonistic: number of FIC50 pairs / Isobologram data, Synergic: number of FIC50 pairs: combination with artesunate; for Combination profile with artesunate: isobologram, IC50 equivalent ratios 1:4, 2:3, 1:1, 3:2, 4:1
Method: Combinations of anti-malarial candidates with artesunate, an artemisinin derivative, were tested in fixed molar ratios based on the individual IC50 values that were previously determined by the SYBR Green I assay. Traditionally, a line (isobole) of additivity is used to distinguish between additive, synergic, and antagonistic interaction profiles. […] Thus, a systematic consideration of additivity ranges was included in the isobologram analysis, as previously described by Grabovsky and Tallarida. Concentration-response curves of individual compounds were used in the calculation of each pair’s additivity range (area within the upper and lower limits in Figs. 4 and 5). Fractional inhibitory concentration (FIC50) pairs plotted as points inside the additivity range indicate the expected sum of each compound effect, while points above and below the range indicate antagonistic and synergic interactions, respectively. The selected inhibitors were combined with artesunate in the IC50 equivalent ratios of 1:4, 2:3, 1:1, 3:2 and 4:1 for the construction of the isobolograms.

[1] = system: Hepatocarcinoma cells (HepG2); test: Cytotoxicity evaluation, MTT assay; format: cell-based, human; settings: HepG2, 72 h, read-out: IC50^HepG2, MTT Average (confidence interval-95%)
Method: (§1) Hepatocarcinoma cells (HepG2) were cultivated in RPMI medium supplemented with 10% (v/v) fetal bovine serum and 0.2% (v/v) penicillin/streptomycin. The antibiotics were added to the medium to eliminate the potential interference of microbial contamination. Cells were cultivated at 37 °C and 5% CO2; the supplemented medium was changed every 2 days.
(§2) For the experimental procedures, cells were trypsinized and transferred to a 96-well plate at 30,000 cells per well and incubated at 37 °C overnight for cell adhesion. Then, serial dilutions of the inhibitor candidates were added to the plate. Cells without any compounds were used as positive growth controls. The plate was incubated at 37 °C and 5% CO2 for 72 h. After incubation, the highest compound concentration to be considered (highest concentration without precipitation) was observed by microscopy. Cytotoxicity was evaluated by two different methods. The first is a colorimetric assay based on metabolic cell activity in the presence of 3-(4,5-dimethylthiazol-2-yl)-2,5-diphenyltetrazolium bromide (MTT). Briefly, mitochondrial enzymes can convert the MTT dye into the purple insoluble compound formazan. To each well, 20 µL MTT at 5 mg/mL was added, followed by incubation at 37 °C for 3 to 5 h. After incubation, the supernatant was removed, and formazan crystals were solubilized in 100 µL DMSO. The absorbance, which is proportional to the number of viable cells, was determined using a SpectraMAX Plus 384 plate reader (Molecular Devices Corp., Sunnyvale, CA) (λ = 570 nm). The second method is based on the uptake of neutral red, a dye that is retained inside the lysosomes of viable cells. To each well, after removal of culture media, 200 µL neutral red medium 40 µg/mL was added, followed by incubation at 37 °C for 3 to 5 h. After incubation, supernatant was dispensed, and 200 µL 0.5% (v/v) formaldehyde in 1% (m/v) CaCl2 was added to remove excess of the dye for 5 min. Supernatant was dispensed, and 100 µL alcohol-acid solution (50% (v/v) ethanol, 1% (v/v) glacial acetic acid) was added, and the plate was stirred until a homogeneous solution was formed. The absorbance was determined using a SpectraMAX Plus 384 plate reader (Molecular Devices Corp., Sunnyvale, CA) (λ = 540 nm). For both methods, the half maximal inhibitory concentration (IC50^HepG2) was determined by non-linear regression analysis of the resulting concentration-response curve using the software Origin 2016 (OriginLab Corporation).

P. falciparum 3D7 strain [2] = test: SYBR Green I inhibition assay for the asexual stages of P. falciparum; format: cell-based, Plasmodium falciparum; settings: 72 h, read-out: IC50^Pf Average (confidence interval-95%)
Method: The P. falciparum 3D7 strain was kept in culture in a humidified incubator at 37 °C in RPMI-1640 medium with 25 mM NaHCO3, 25 mM HEPES (pH 7.4), 11 mM D-glucose, 3.67 mM hypoxanthine and 25 µg/mL gentamicin, supplemented with 0.5% (m/v) AlbuMAX II. The culture medium was changed daily, and the parasitaemia was maintained below 10% with 2.5% haematocrit in human erythrocytes.
The parasites were synchronized through sterile 5% (m/v) D-sorbitol treatment over 10 min at 37 °C for the enrichment of ring-stage parasites. The cultures were pelleted by centrifugation at 600×g over 5 min. The parasitaemia was determined by microscope analysis of thin blood smears stained with Giemsa 10% (v/v) after methanol fixation. The initial parasitaemia was calculated from 1000 red blood cells (RBCs), and cultures were diluted to 0.5% parasitaemia and 2% haematocrit by adding the appropriate volumes of erythrocytes and medium. Parasite aliquots of 180 µL were distributed into 96-well plates previously prepared with 20 µL aliquots of a tenfold concentrated compound. Negative and positive control wells corresponding to non-parasitized erythrocytes and parasite cultures in the absence of compounds were set in parallel. The DMSO concentration was maintained below 0.05% (v/v). The plates were incubated for 72 h at 37 °C in a humidified incubator with a gas mixture of 90% N2, 5% O2 and 5% CO2. After incubation, the culture medium was removed, and the cells were resuspended in 100 µL PBS buffer (116 mM NaCl, 10 mM Na2HPO4, 3 mM KH2PO4) and lysed with 100 µL lysis buffer (20 mM Tris base, 5 mM EDTA, 0.0008% (v/v) Triton X-100, 0.008% (m/v) saponin, pH 8.0) containing 0.002% (v/v) SYBR Green I. Plates were incubated at room temperature for 30 min, and the fluorescence corresponding to the parasitic density was determined using a SpectraMAX Gemini EM plate reader (Molecular Devices Corp., Sunnyvale, CA) (excitation at 485 nm, emission at 535 nm). The half maximal inhibitory concentration (IC50^Pf) was determined by non-linear regression analysis of the resulting concentration-response curve using the software Origin 2016 (OriginLab Corporation).

[3] = system: Hepatocarcinoma cells (HepG2); test: Cytotoxicity evaluation, neutral red assay; format: cell-based, human; settings: HepG2, 72 h, read-out: IC50^HepG2, NR Average (confidence interval-95%)
Method: as §1, §2

P. falciparum 3D7 strain [4] = system: P. falciparum 3D7 strain; design: method as in PMID 23798988; settings: reported potency of Malaria Box compounds ref 13, read-out: Reported IC50^Pf; cited from earlier work
[5] = system: asexual intraerythrocytic stages of P. falciparum; test: Speed of action studies (microscopy of thin blood smears); format: cell-based, Plasmodium falciparum; settings: ring-stage parasites; for Parasite morphology during incubation: compound at tenfold the IC50, microscopy up to 36 h; for Speed of action: compound at tenfold the IC50, observed 0-36 h
Method: Parasites in thin blood smears were observed by microscopy after 0, 8, 16, 24 and 36 h of incubation.

In the case of `O=[N+]([O-])c1ccc(C=NNc2nc3ccccc3[nH]2)cc1` [Compound 4], the “Isobologram data, Additive: fraction of FIC50 pairs” value (P. falciparum) was 8%, the “Isobologram data, Additive: number of FIC50 pairs” value (“Isobologram data, Additive: number” below) (P. falciparum) was 1 and the “Isobologram data, Antagonistic: fraction of FIC50 pairs” value (P. falciparum) was 92%. For the same compound, the “Isobologram data, Antagonistic: number of FIC50 pairs” value (P. falciparum) was 12, the “Isobologram data, Synergic: number of FIC50 pairs” value (“Isobologram data, Synergic: number” below) (P. falciparum) was 0 and the “Combination profile with artesunate” value (P. falciparum; listed as 04) was “Antagonism”. The pIC50 [1] was less than 5.20, the pIC50 (P. falciparum 3D7 strain [2]) was 6.36 and the pIC50 [3] was less than 5.20. For the same compound, the pIC50 (P. falciparum 3D7 strain [4]) was 6.85, the “Parasite morphology during incubation” value [5] was “young trophozoites were observed after 36 h” and the Speed of action [5] was “slow-acting and Slow”.

With `CCn1c(CN2CCN(Cc3ccccc3)CC2)nc2cc(NC(=O)c3cccs3)ccc21` [Compound 5] the “Isobologram data, Additive: fraction of FIC50 pairs” value (P. falciparum) was 15%, the “Isobologram data, Additive: number” value (P. falciparum) was 2 and the “Isobologram data, Antagonistic: fraction of FIC50 pairs” value (P. falciparum) was 85%. The “Isobologram data, Antagonistic: number of FIC50 pairs” value (P. falciparum) was 11, the “Isobologram data, Synergic: number” value (P. falciparum) was 0 and the “Combination profile with artesunate” value (P. falciparum; listed as 05) was “Antagonism”. It also gave a pIC50 [1] of 4.05, a pIC50 (P. falciparum 3D7 strain [2]) of 6.60 and a pIC50 [3] of less than 4.00. The pIC50 (P. falciparum 3D7 strain [4]) was 6.29, the “Parasite morphology during incubation” value [5] was “punctual shapes after 16 h” and the Speed of action [5] was “fast-acting and Fast”.

With `O=C(Nc1ccc(C23CC4CC(CC(c5ccccc5)(C4)C2)C3)cc1)c1cccs1` [Compound 7] the “Isobologram data, Additive: fraction of FIC50 pairs” value (P. falciparum) was 22%, the “Isobologram data, Additive: number” value (P. falciparum) was 2 and the “Isobologram data, Antagonistic: fraction of FIC50 pairs” value (P. falciparum) was 78%. For the same compound, the “Isobologram data, Antagonistic: number of FIC50 pairs” value (P. falciparum) was 7, the “Isobologram data, Synergic: number” value (P. falciparum) was 0 and the “Combination profile with artesunate” value (P. falciparum; listed as 07) was “Antagonism”. It also gave a pIC50 [1] of less than 4.60, a pIC50 (P. falciparum 3D7 strain [2]) of 6.00 and a pIC50 [3] of less than 4.60. The pIC50 (P. falciparum 3D7 strain [4]) was 6.08, the “Parasite morphology during incubation” value [5] was “punctual shapes after 16 h” and the Speed of action [5] was “fast-acting and Fast”.

With `Fc1ccc2[nH]c3c(NCCCN4CCOCC4)ncnc3c2c1` [Compound 11] the “Isobologram data, Additive: number” value (P. falciparum) was 0, the “Isobologram data, Antagonistic: fraction of FIC50 pairs” value (P. falciparum) was 100% and the “Isobologram data, Antagonistic: number of FIC50 pairs” value (P. falciparum) was 12. For the same compound, the “Isobologram data, Synergic: number” value (P. falciparum) was 0, the “Combination profile with artesunate” value (P. falciparum) was “antagonistic; also recorded: Antagonism” and the pIC50 [1] was less than 4.30. For the same compound, the pIC50 (P. falciparum 3D7 strain [2]) was 5.80, the pIC50 [3] was less than 4.30 and the pIC50 (P. falciparum 3D7 strain [4]) was 6.46. The “Parasite morphology during incubation” value [5] was “punctual shapes after 16 h” and the Speed of action [5] was “Fast”.
